Activity calls are given as the source filed them.
Target: T1, Beta-adrenergic receptor kinase 1 (Homo sapiens, UniProt P25098)
T1 sequence (P25098 whole entry): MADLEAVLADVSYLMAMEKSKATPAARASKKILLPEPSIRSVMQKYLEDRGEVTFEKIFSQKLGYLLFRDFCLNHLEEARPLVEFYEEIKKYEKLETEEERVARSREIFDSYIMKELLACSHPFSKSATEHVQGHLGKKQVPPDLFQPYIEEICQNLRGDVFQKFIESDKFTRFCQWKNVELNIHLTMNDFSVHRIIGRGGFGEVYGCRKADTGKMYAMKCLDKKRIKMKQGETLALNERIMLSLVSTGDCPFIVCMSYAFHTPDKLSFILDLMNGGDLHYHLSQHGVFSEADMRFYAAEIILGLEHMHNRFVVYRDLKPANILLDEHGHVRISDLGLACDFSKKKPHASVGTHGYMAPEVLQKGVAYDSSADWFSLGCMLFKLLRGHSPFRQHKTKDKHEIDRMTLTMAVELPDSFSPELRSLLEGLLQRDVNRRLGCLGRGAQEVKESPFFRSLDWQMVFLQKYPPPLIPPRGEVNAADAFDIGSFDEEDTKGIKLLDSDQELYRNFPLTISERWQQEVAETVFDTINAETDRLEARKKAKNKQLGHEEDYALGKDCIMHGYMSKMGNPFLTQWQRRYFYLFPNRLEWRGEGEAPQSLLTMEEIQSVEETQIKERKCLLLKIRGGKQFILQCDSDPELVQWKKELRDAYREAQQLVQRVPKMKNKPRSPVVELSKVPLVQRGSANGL
Also: in the data inactive means no Kd found up to 30 µM.

SMILES	Kd
Cc1ccc(NC(=O)c2ccc(CN3CC[C@H](N(C)C)C3)c(C(F)(F)F)c2)cc1Nc1nccc(-c2cncnc2)n1 [BAFETINIB]	> 30 µM (inactive)
CCS(=O)(=O)N1CC(CC#N)(n2cc(-c3ncnc4[nH]ccc34)cn2)C1 [BARICITINIB]	> 30 µM (inactive)
Cc1cc2c(F)c(Oc3ncnn4cc(OC[C@@H](C)OC(=O)[C@H](C)N)c(C)c34)ccc2[nH]1 [BRIVANIB ALANINATE]	> 30 µM (inactive)
CNC(=O)c1ccc(-c2cnc3ncc(Cc4ccc5ncccc5c4)n3n2)cc1F [CAPMATINIB]	> 30 µM (inactive)
CN1CCN(c2ccc3nc(-c4c(N)c5c(F)cccc5[nH]c4=O)[nH]c3c2)CC1 [DOVITINIB]	> 30 µM (inactive)
CCn1c(-c2nonc2N)nc2c(C#CC(C)(C)O)ncc(OC[C@H]3CCCNC3)c21 [GSK-690693]	> 30 µM (inactive)
O=C1NC(=O)/C(=C/c2ccc3nccc(-c4ccncc4)c3c2)S1 [GSK-1059615]	> 30 µM (inactive)
Cc1cn(-c2cc(NC(=O)c3ccc(C)c(Nc4nccc(-c5cccnc5)n4)c3)cc(C(F)(F)F)c2)cn1 [NILOTINIB]	> 30 µM (inactive)
C=CC(=O)N1CCC(Oc2cc3c(Nc4ccc(Cl)c(Cl)c4F)ncnc3cc2OC)CC1 [POZIOTINIB]	> 30 µM (inactive)
COc1cc(OC)c(/C=C/S(=O)(=O)Cc2ccc(OC)c(NCC(=O)O)c2)c(OC)c1 [RIGOSERTIB]	> 30 µM (inactive)
C[C@@H]1CN(Cc2ccc(F)cc2)[C@@H](C)CN1C(=O)c1cc2c(C(=O)C(=O)N(C)C)cn(C)c2cc1Cl [TALMAPIMOD]	> 30 µM (inactive)
Nc1nc(N)c2nc(-c3cccc(O)c3)c(-c3cccc(O)c3)nc2n1 [TG100-115]	> 30 µM (inactive)

Target: Citron Rho-interacting kinase (Homo sapiens, UniProt O14578)
Sequence (O14578 whole entry): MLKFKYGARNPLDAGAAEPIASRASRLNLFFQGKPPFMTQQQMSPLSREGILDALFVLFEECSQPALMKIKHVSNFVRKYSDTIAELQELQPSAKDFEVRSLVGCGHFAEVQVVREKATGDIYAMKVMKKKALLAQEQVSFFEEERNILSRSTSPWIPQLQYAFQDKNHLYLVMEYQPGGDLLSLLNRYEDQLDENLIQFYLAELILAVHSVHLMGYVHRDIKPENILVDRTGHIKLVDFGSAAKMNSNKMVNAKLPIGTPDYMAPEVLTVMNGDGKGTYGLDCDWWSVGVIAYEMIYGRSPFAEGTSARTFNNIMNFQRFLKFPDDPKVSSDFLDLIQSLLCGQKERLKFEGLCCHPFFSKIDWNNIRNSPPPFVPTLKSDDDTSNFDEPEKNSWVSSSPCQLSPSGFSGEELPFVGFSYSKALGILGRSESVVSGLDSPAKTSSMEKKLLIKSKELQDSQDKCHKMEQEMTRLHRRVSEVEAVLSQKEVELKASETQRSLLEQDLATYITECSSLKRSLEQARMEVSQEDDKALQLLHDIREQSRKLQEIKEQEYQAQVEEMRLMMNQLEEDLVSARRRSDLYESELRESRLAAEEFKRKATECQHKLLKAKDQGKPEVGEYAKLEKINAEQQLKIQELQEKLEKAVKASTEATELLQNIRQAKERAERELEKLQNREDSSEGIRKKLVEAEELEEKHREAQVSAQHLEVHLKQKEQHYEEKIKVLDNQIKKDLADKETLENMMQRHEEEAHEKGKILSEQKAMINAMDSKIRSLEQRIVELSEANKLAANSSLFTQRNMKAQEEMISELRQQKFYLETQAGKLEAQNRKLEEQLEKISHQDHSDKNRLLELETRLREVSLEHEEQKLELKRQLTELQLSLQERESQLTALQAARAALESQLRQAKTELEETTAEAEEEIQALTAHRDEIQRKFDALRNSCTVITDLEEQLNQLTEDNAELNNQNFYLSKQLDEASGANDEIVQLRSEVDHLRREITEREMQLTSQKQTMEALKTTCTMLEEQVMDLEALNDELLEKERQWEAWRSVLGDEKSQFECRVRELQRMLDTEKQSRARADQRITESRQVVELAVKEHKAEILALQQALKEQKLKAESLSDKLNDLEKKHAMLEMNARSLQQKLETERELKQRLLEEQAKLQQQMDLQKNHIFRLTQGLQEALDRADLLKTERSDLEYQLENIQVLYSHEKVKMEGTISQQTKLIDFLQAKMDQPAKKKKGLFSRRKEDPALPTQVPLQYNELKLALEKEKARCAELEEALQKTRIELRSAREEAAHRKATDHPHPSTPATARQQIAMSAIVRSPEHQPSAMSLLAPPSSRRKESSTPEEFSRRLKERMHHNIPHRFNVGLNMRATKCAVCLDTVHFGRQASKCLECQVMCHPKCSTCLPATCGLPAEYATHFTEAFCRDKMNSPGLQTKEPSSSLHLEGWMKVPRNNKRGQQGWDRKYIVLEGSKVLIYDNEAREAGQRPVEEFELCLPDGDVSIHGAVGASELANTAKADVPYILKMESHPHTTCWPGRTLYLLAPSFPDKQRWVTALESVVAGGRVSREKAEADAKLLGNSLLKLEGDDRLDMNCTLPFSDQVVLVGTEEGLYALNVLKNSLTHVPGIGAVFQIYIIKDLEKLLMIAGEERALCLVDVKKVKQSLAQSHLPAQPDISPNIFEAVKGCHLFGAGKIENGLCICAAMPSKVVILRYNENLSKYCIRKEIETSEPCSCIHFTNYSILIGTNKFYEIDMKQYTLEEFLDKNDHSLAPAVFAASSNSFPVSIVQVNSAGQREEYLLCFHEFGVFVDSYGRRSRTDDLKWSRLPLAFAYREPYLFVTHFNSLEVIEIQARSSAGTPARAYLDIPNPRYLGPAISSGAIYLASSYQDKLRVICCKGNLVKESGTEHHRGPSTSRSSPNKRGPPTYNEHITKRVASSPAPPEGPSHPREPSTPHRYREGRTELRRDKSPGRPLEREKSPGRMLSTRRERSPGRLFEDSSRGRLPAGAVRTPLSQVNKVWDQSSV

SMILES	Kd
Cc1ccc(NC(=O)c2ccc(CN3CC[C@H](N(C)C)C3)c(C(F)(F)F)c2)cc1Nc1nccc(-c2cncnc2)n1 [BAFETINIB]	> 30 µM (inactive)
CCS(=O)(=O)N1CC(CC#N)(n2cc(-c3ncnc4[nH]ccc34)cn2)C1 [BARICITINIB]	4.36 µM (active)
Cc1cc2c(F)c(Oc3ncnn4cc(OC[C@@H](C)OC(=O)[C@H](C)N)c(C)c34)ccc2[nH]1 [BRIVANIB ALANINATE]	> 30 µM (inactive)
CNC(=O)c1ccc(-c2cnc3ncc(Cc4ccc5ncccc5c4)n3n2)cc1F [CAPMATINIB]	> 30 µM (inactive)
O=C1NC(=O)/C(=C/c2ccc3nccc(-c4ccncc4)c3c2)S1 [GSK-1059615]	> 30 µM (inactive)
C=CC(=O)N1CCC(Oc2cc3c(Nc4ccc(Cl)c(Cl)c4F)ncnc3cc2OC)CC1 [POZIOTINIB]	> 30 µM (inactive)
COc1cc(OC)c(/C=C/S(=O)(=O)Cc2ccc(OC)c(NCC(=O)O)c2)c(OC)c1 [RIGOSERTIB]	> 30 µM (inactive)
C[C@@H]1CN(Cc2ccc(F)cc2)[C@@H](C)CN1C(=O)c1cc2c(C(=O)C(=O)N(C)C)cn(C)c2cc1Cl [TALMAPIMOD]	> 30 µM (inactive)

Target: T2, ATP-dependent RNA helicase DDX42 (Homo sapiens, UniProt Q86XP3)
T2 sequence (Q86XP3 whole entry): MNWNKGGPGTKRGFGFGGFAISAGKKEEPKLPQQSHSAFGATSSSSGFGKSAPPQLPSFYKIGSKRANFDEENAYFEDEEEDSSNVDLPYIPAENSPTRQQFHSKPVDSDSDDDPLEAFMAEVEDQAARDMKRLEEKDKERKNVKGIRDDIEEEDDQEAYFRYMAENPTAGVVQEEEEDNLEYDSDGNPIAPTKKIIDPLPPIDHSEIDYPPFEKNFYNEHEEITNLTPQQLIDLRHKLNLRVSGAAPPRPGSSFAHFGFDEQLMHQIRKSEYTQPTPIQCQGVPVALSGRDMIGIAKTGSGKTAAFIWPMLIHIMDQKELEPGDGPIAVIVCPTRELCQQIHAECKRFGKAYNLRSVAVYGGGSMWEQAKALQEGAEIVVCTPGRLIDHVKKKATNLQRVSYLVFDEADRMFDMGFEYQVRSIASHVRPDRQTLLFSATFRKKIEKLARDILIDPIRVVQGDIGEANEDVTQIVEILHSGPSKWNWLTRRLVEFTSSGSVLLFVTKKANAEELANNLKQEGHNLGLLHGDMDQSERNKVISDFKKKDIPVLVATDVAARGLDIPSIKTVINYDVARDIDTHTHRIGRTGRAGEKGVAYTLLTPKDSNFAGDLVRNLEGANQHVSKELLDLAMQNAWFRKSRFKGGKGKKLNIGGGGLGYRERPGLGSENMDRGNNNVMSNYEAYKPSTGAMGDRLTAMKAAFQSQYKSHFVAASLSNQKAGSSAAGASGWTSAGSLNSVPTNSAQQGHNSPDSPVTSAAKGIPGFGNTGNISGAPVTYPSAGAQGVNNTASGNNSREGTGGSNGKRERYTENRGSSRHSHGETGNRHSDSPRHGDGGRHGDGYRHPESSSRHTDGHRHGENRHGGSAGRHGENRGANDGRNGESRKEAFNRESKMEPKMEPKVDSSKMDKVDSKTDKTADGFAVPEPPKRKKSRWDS

SMILES	Kd
Cc1ccc(NC(=O)c2ccc(CN3CC[C@H](N(C)C)C3)c(C(F)(F)F)c2)cc1Nc1nccc(-c2cncnc2)n1 [BAFETINIB]	> 30 µM (inactive)
CCS(=O)(=O)N1CC(CC#N)(n2cc(-c3ncnc4[nH]ccc34)cn2)C1 [BARICITINIB]	> 30 µM (inactive)
Cc1cc2c(F)c(Oc3ncnn4cc(OC[C@@H](C)OC(=O)[C@H](C)N)c(C)c34)ccc2[nH]1 [BRIVANIB ALANINATE]	> 30 µM (inactive)
CNC(=O)c1ccc(-c2cnc3ncc(Cc4ccc5ncccc5c4)n3n2)cc1F [CAPMATINIB]	> 30 µM (inactive)
CCn1c(-c2nonc2N)nc2c(C#CC(C)(C)O)ncc(OC[C@H]3CCCNC3)c21 [GSK-690693]	> 30 µM (inactive)
O=C(Nc1cccc(Cl)c1)Nc1ncc(CCNc2ncnc3ccsc23)s1 [SNS-314]	> 30 µM (inactive)
Nc1nc(N)c2nc(-c3cccc(O)c3)c(-c3cccc(O)c3)nc2n1 [TG100-115]	> 30 µM (inactive)

Target: T3, Glycine--tRNA ligase (Homo sapiens, UniProt P41250)
T3 sequence (P41250 whole entry): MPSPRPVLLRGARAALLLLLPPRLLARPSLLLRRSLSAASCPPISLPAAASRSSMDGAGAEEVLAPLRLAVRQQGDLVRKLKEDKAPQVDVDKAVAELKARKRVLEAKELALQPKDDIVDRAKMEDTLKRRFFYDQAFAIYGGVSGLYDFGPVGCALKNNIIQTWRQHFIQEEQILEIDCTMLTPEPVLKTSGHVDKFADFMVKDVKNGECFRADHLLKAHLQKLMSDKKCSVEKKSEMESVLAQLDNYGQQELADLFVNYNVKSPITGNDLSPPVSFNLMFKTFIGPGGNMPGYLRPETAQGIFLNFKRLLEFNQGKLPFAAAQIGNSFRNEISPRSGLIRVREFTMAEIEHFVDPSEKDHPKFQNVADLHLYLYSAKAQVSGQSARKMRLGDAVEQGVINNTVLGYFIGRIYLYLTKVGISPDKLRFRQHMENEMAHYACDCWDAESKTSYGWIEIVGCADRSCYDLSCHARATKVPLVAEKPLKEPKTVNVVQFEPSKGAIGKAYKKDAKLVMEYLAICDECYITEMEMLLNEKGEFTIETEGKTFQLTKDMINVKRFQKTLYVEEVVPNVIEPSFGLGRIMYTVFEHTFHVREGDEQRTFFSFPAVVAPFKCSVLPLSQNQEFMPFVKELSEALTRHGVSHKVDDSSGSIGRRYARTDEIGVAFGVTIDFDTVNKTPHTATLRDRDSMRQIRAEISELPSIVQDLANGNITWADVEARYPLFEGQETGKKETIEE

SMILES	Kd
Cc1ccc(NC(=O)c2ccc(CN3CC[C@H](N(C)C)C3)c(C(F)(F)F)c2)cc1Nc1nccc(-c2cncnc2)n1 [BAFETINIB]	> 30 µM (inactive)
CCS(=O)(=O)N1CC(CC#N)(n2cc(-c3ncnc4[nH]ccc34)cn2)C1 [BARICITINIB]	> 30 µM (inactive)
Cc1cc2c(F)c(Oc3ncnn4cc(OC[C@@H](C)OC(=O)[C@H](C)N)c(C)c34)ccc2[nH]1 [BRIVANIB ALANINATE]	> 30 µM (inactive)
CNC(=O)c1ccc(-c2cnc3ncc(Cc4ccc5ncccc5c4)n3n2)cc1F [CAPMATINIB]	> 30 µM (inactive)
CN1CCN(c2ccc3nc(-c4c(N)c5c(F)cccc5[nH]c4=O)[nH]c3c2)CC1 [DOVITINIB]	> 30 µM (inactive)
CCn1c(-c2nonc2N)nc2c(C#CC(C)(C)O)ncc(OC[C@H]3CCCNC3)c21 [GSK-690693]	> 30 µM (inactive)
O=C1NC(=O)/C(=C/c2ccc3nccc(-c4ccncc4)c3c2)S1 [GSK-1059615]	> 30 µM (inactive)
Cc1cn(-c2cc(NC(=O)c3ccc(C)c(Nc4nccc(-c5cccnc5)n4)c3)cc(C(F)(F)F)c2)cn1 [NILOTINIB]	> 30 µM (inactive)
C=CC(=O)N1CCC(Oc2cc3c(Nc4ccc(Cl)c(Cl)c4F)ncnc3cc2OC)CC1 [POZIOTINIB]	> 30 µM (inactive)
COc1cc(OC)c(/C=C/S(=O)(=O)Cc2ccc(OC)c(NCC(=O)O)c2)c(OC)c1 [RIGOSERTIB]	> 30 µM (inactive)
O=C(Nc1cccc(Cl)c1)Nc1ncc(CCNc2ncnc3ccsc23)s1 [SNS-314]	> 30 µM (inactive)
C[C@@H]1CN(Cc2ccc(F)cc2)[C@@H](C)CN1C(=O)c1cc2c(C(=O)C(=O)N(C)C)cn(C)c2cc1Cl [TALMAPIMOD]	> 30 µM (inactive)
Nc1nc(N)c2nc(-c3cccc(O)c3)c(-c3cccc(O)c3)nc2n1 [TG100-115]	> 30 µM (inactive)

Target: T4, Cytochrome c1, heme protein, mitochondrial (Homo sapiens, UniProt P08574)
T4 sequence (P08574 whole entry): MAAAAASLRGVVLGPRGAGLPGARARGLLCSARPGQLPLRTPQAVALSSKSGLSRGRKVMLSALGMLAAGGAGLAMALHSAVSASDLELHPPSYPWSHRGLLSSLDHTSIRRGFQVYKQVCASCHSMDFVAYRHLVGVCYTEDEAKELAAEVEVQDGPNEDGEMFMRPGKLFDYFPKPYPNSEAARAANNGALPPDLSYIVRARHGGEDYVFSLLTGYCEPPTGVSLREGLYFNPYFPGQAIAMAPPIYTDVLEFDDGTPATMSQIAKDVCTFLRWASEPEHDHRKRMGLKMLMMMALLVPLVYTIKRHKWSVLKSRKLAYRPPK

SMILES	Kd
Cc1ccc(NC(=O)c2ccc(CN3CC[C@H](N(C)C)C3)c(C(F)(F)F)c2)cc1Nc1nccc(-c2cncnc2)n1 [BAFETINIB]	> 30 µM (inactive)
CCS(=O)(=O)N1CC(CC#N)(n2cc(-c3ncnc4[nH]ccc34)cn2)C1 [BARICITINIB]	> 30 µM (inactive)
Cc1cc2c(F)c(Oc3ncnn4cc(OC[C@@H](C)OC(=O)[C@H](C)N)c(C)c34)ccc2[nH]1 [BRIVANIB ALANINATE]	> 30 µM (inactive)
CNC(=O)c1ccc(-c2cnc3ncc(Cc4ccc5ncccc5c4)n3n2)cc1F [CAPMATINIB]	> 30 µM (inactive)
CN1CCN(c2ccc3nc(-c4c(N)c5c(F)cccc5[nH]c4=O)[nH]c3c2)CC1 [DOVITINIB]	> 30 µM (inactive)
CCn1c(-c2nonc2N)nc2c(C#CC(C)(C)O)ncc(OC[C@H]3CCCNC3)c21 [GSK-690693]	> 30 µM (inactive)
O=C1NC(=O)/C(=C/c2ccc3nccc(-c4ccncc4)c3c2)S1 [GSK-1059615]	> 30 µM (inactive)
Cc1cn(-c2cc(NC(=O)c3ccc(C)c(Nc4nccc(-c5cccnc5)n4)c3)cc(C(F)(F)F)c2)cn1 [NILOTINIB]	> 30 µM (inactive)
C=CC(=O)N1CCC(Oc2cc3c(Nc4ccc(Cl)c(Cl)c4F)ncnc3cc2OC)CC1 [POZIOTINIB]	> 30 µM (inactive)
COc1cc(OC)c(/C=C/S(=O)(=O)Cc2ccc(OC)c(NCC(=O)O)c2)c(OC)c1 [RIGOSERTIB]	> 30 µM (inactive)
O=C(Nc1cccc(Cl)c1)Nc1ncc(CCNc2ncnc3ccsc23)s1 [SNS-314]	> 30 µM (inactive)
C[C@@H]1CN(Cc2ccc(F)cc2)[C@@H](C)CN1C(=O)c1cc2c(C(=O)C(=O)N(C)C)cn(C)c2cc1Cl [TALMAPIMOD]	> 30 µM (inactive)

Source: ChEMBL document CHEMBL3991601, “The target landscape of clinical kinase drugs” (Science, 2017)
